Test results from ChEMBL document CHEMBL1177888, “Mn(II), Co(II) and Zn(II) complexes with heterocyclic substituted thiosemicarbazones: synthesis, characterization, X-ray crystal structures and antitumor comparison” (Eur J Med Chem, 2010).

tested on: K562; experiment: Cytotoxicity against human K562 cells after 48 hrs by MTT assay; format: functional, cell-based; conditions: K562, 48 h

In order of falling IC50:
1. C/C(=N\NC(N)=S)c1ccccn1  29.7 µM
2. CNC(=S)N/N=C(\C)c1ccccn1  4.58 µM
3. S=C(N/N=C(\c1ccccc1)c1ccccn1)Nc1ccccc1  1.43 µM
